Source: US9926271B2, “Octahydrocyclopentapyrroles, their preparation and use” (The Trustees of Columbia University in the City of New York, priority 2013, dated 2018)

Key:
[1] = target: T1, RBP4-TTR interaction (Homo sapiens, UniProt P02753); experiment: TR-FRET (HTRF) assay for retinol-induced RBP4-TTR interaction; assay type: biochemical; set-up: human RBP4 fragment (amino acids 19-201); host or cells: Gold(DE3)pLysS E. coli strain (Stratagene), pMAL-c4x vector; conditions: in the presence of 1 μM retinol; read-out: HTRF assay for antagonists of RBP4-TTR interaction: IC50
Text: TR-FRET Assay for Retinol-Induced RBP4-TTR Interaction
Binding of a desired RBP4 antagonist displaces retinol and induces hindrance for RBP4-TTR interaction resulting in the decreased FRET signal (FIG. 7). Bacterially expressed MBP-RBP4 and untagged TTR were used in this assay. […] Following cell lysis, recombinant RBP4 was purified from the soluble fraction using the ACTA FPLC system (GE Healthcare) equipped with the 5-ml the MBP Trap HP column. Human untagged TTR was purchased from Calbiochem. Untagged TTR was labeled directly with Eu^3+ Cryptate-NHS using the HTRF Cryptate Labeling kit from CisBio following the manufacturer's recommendations. HTRF assay was performed in white low volume 384 well plates (Greiner-Bio) in a final assay volume of 16 μl per well. The reaction buffer contained 10 mM Tris-HCl pH 7.5, 1 mM DTT, 0.05% NP-40, 0.05% Prionex, 6% glycerol, and 400 mM RE. […] Titration of test compounds in this assay was conducted in the presence of 1 μM retinol. All reactions were assembled in the dark under dim red light and incubated overnight at +4° C. wrapped in aluminum foil. TR-FRET signal was measured in the SpectraMax M5e Multimode Plate Reader (Molecular Device). Fluorescence was excited at 337 nm and two readings per well were taken: Reading 1 for time-gated energy transfer from Eu(K) to d2 (337 nm excitation, 668 nm emission, counting delay 75 microseconds, counting window 100 microseconds) and Reading 2 for Eu(K) time-gated fluorescence (337 nm excitation, 620 nm emission, counting delay 400 microseconds, counting window 400 microseconds). The TR-FRET signal was expressed as the ratio of fluorescence intensity: Flu665/Flu620×10,000.

[2] = target: T2, RBP4 (Homo sapiens, UniProt P02753); experiment: Scintillation proximity RBP4 binding assay (SPA); set-up: Untagged human RBP4 purified from urine of tubular proteinuria patients; purchased Fitzgerald Industries International; host or cells: urine of tubular proteinuria patients; conditions: 10 nM 3H-Retinol, 50 nM biotinylated RBP4
Procedure: Scintillation Proximity RBP4 Binding Assay
Untagged human RBP4 purified from urine of tubular proteinuria patients was purchased from Fitzgerald Industries International. It was biotinylated using the EZ-Link Sulfo-NHS-LC-Biotinylation kit from Pierce following the manufacturer's recommendations. Binding experiments were performed in 96-well plates (OptiPlate, PerkinElmer) in a final assay volume of 100 μl per well in SPA buffer (1×PBS, pH 7.4, 1 mM EDTA, 0.1% BSA, 0.5% CHAPS). The reaction mix contained 10 nM ^3H-Retinol (48.7 Ci/mmol; PerkinElmer), 0.3 mg/well Streptavidin-PVT beads, 50 nM biotinylated RBP4 and a test compound. Nonspecific binding was determined in the presence of 20 μM of unlabeled retinol. The reaction mix was assembled in the dark under dim red light. The plates were sealed with clear tape (TopSeal-A: 96-well microplate, PerkinElmer), wrapped in the aluminum foil, and allowed to equilibrate 6 hours at room temperature followed by overnight incubation at +4° C. Radiocounts were measured using a TopCount NXT counter (Packard Instrument Company).

[3] = target: T1, RBP4-TTR interaction; conditions: cited from earlier work
[4] = system: Abca4−/− mice; conditions: animal model of excessive bisretinoid accumulation; cited from earlier work
[5] = target: T2, RBP4; conditions: cited from earlier work
[6] = system: serum RBP4 and retinol; conditions: in vivo; cited from earlier work
[7] = system: retinal pigment epithelium cells; conditions: many cell types, including the retinal pigment epithelium cells; cited from earlier work
[8] = system: mice; conditions: cited from earlier work

Row | SMILES | IC50 [1] [nM] | IC50 [2] [nM] | also measured
1 | Cc1cc(C(=O)O)cc(N2C[C@H]3C[C@@H](c4ccccc4C(F)(F)F)C[C@H]3C2)n1 [Compound 70, 2-Methyl-6-((3aR,5r,6aS)-5-(2-(trifluoromethyl)phenyl)hexahydrocyclopenta[c]pyrrol-2(1H)-yl)isonicotinic Acid] | 229 | 53.2 | –
2 | O=C(O)c1cccnc1N1C[C@H]2C[C@@H](c3ccccc3C(F)(F)F)C[C@H]2C1 [Compound 71, 2-((3aR,5r,6aS)-5-(2-(Trifluoromethyl)phenyl)hexahydrocyclopenta[c]pyrrol-2(1H)-yl)nicotinic Acid] | 382 | 43.8 | –
3 | CC1=C(/C=C/C(C)=C/C=C/C(C)=C/C(=O)Nc2ccc(O)cc2)C(C)(C)CCC1 [fenretinide, N-(4-hydroxy-phenyl)retinamide] | – | – | RBP4-TTR interaction [3]: disrupt the RBP4-TTR interaction; A2E production [4]: reduced A2E production; binding to RBP4, displacement of all-trans retinol [5]: bind to RBP4; serum RBP4 and retinol [6]: reduce serum RBP4 and retinol; induction of apoptosis [7]: extremely active inducer of apoptosis; formation of hemangiosarcomas [8]: stimulate formation of hemangiosarcomas
4 | Cc1cnc(N2C[C@H]3C[C@@H](c4ccccc4C(F)(F)F)C[C@H]3C2)nc1C(=O)O [Compound 66] | 596 | 90 | –
5 | Cc1cc(NC(=O)N2C[C@H]3C[C@@H](c4ccccc4C(F)(F)F)C[C@H]3C2)c(C(=O)O)cn1 [Compound 73, 6-Methyl-4-((3aR,5r,6aS)-5-(2-(trifluoromethyl)phenyl)octahydrocyclopenta[c]pyrrole-2-carboxamido)nicotinic Acid] | – | 23.9 | –
6 | Cc1cc(C(=O)O)nc(N2C[C@H]3C[C@@H](c4ccccc4C(F)(F)F)C[C@H]3C2)c1 [Compound 69, 4-Methyl-6-((3aR,5r,6aS)-5-(2-(trifluoromethyl)phenyl)hexahydrocyclopenta[c]pyrrol-2(1H)-yl)picolinic Acid] | 295 | 14 | –
7 | O=C(O)c1nc(N2C[C@H]3C[C@@H](c4ccccc4C(F)(F)F)C[C@H]3C2)ncc1F [Compound 67] | 276 | 25.9 | –
8 | O=C(O)c1cnc(N2C[C@H]3C[C@@H](c4ccccc4C(F)(F)F)C[C@H]3C2)nc1 [Compound 68] | 1860 | 172 | –

Continued by falling IC50 [1], values first:

Row | IC50 [1] [nM] | IC50 [2] [nM] | SMILES | also measured
9 | 203 | 158 | CC(C)c1cc(C(=O)O)nc(N2C[C@H]3C[C@@H](c4ccccc4C(F)(F)F)C[C@H]3C2)n1 [Compound 63, 6-Isopropyl-2-((3aR,5r,6aS)-5-(2-(trifluoromethyl)phenyl)hexahydrocyclopenta[c]pyrrol-2(1H)-yl)pyrimidine-4-carboxylic Acid] | –
10 | 123 | 48.7 | Cc1nc(N2C[C@H]3C[C@@H](c4ccccc4C(F)(F)F)C[C@H]3C2)nc(C(=O)O)c1C [Compound 74, 5,6-Dimethyl-2-((3aR,5r,6aS)-5-(2-(trifluoromethyl)phenyl)hexahydrocyclopenta[c]pyrrol-2(1H)-yl)pyrimidine-4-carboxylic Acid] | –
11 | 88 | 9.5 | O=C(O)c1cc(C(F)(F)F)nc(N2C[C@H]3C[C@@H](c4ccccc4C(F)(F)F)C[C@H]3C2)n1 [Compound 65, 6-(Trifluoromethyl)-2-((3aR,5r,6aS)-5-(2-(trifluoromethyl)phenyl)hexahydrocyclopenta[c]pyrrol-2(1H)-yl)pyrimidine-4-carboxylic Acid] | –
12 | 86.7 | 14.3 | COc1cc(C(=O)O)nc(N2C[C@H]3C[C@@H](c4ccccc4C(F)(F)F)C[C@H]3C2)n1 [Compound 62, 6-Methoxy-2-((3aR,5r,6aS)-5-(2-(trifluoromethyl)phenyl)hexahydrocyclopenta[c]pyrrol-2(1H)-yl)pyrimidine-4-carboxylic Acid] | –
13 | 79.6 | 27.2 | O=C(O)c1ccnc(N2C[C@H]3C[C@@H](c4ccccc4C(F)(F)F)C[C@H]3C2)n1 [Compound 64, 2-((3aR,5r,6aS)-5-(2-(Trifluoromethyl)phenyl)hexahydrocyclopenta[c]pyrrol-2(1H)-yl)pyrimidine-4-carboxylic Acid] | –
14 | 49.2 | 54.3 | Cc1cc(C(=O)O)nc(N2C[C@H]3C[C@@H](c4cc(F)ccc4C(F)(F)F)C[C@H]3C2)n1 [Compound 72, 2-((3aR,5r,6aS)-5-(5-Fluoro-2-(trifluoromethyl)phenyl)hexahydrocyclopenta[c]pyrrol-2(1H)-yl)-6-methylpyrimidine-4-carboxylic Acid] | –
